From PMC8571378, “Reversion analysis reveals the in vivo immunogenicity of a poorly MHC I-binding cancer neoepitope” (Nature Communications, 2021)
No end group written: not given here.

Assays:
Meth A = experiment: Tumor rejection (immunization-challenge) assay; tumor growth AUC and tumor rejection score (TRS); type: in vivo, BALB/cJ mice; conditions: BALB/cJ mice immunized twice, CTLA4 blockade
Procedure: Each line represents tumor growth in a single mouse (n = 5 mice per group). AUC for each group is plotted in the panel on the right. Data are presented as mean ± SD. P values were calculated using 1-way ANOVA test adjusted for multiple comparisons (Tukey’s multiple comparison test). c Several truncated versions of the 18-mer Ccdc85c^MUT peptide were tested in tumor rejection assay. BALB/cJ mice were immunized and tumor challenged. Each line represents tumor growth in a single mouse. Although mice were immunized with individual peptides, the data for multiple peptides are grouped into one with the composition of the peptides shown on the right. The tumor rejection data for individual peptides are shown in Supplementary Fig. 1. Tumor rejection score (TRS) for each neoepitope is shown in the yellow box, where five represents a complete tumor protection and zero means no tumor rejection. d On the left panel, total Area Under the Curve (AUC) scores for each group in B are plotted. […] Error bars represent standard deviation (SD). […] P values were calculated using 1-way ANOVA test adjusted for multiple comparisons. […] Matched peak lists for the “heavy” and “light” ions were extracted and monitored, while only single charge y ions were plotted. See Methods for details. f Predicted (by NetMHC4.0) and measured IC50 values of the binding of candidate precise neoepitopes of Ccdc85c^MUT to K^d are shown. […] The affinities of the MS/TRS predicted neoepitopes were also measured for D^d and L^d; measured affinities were below the level of detection.
The mutation is heterozygous and the un-mutated as well as the mutated reads are detected in the transcripts. […] All mice were challenged with the Meth A cells, and tumor rejection was monitored (Fig. 1b upper panel). […]
Area under the curve (AUC) is used as a tool to measure tumor growth. Briefly, AUC was calculated by selecting “Curves & Regression” and then “Area under curve” from the “analyze” tool, using the Prism 5.0 (GraphPad). […]

splenic CD8 T cells = experiment: ELIspot for interferon γ of splenic CD8 T cells from immunized mice; type: cell-based, BALB/c mice; conditions: spleens seven days after second immunization; in vitro stimulation with immunizing 18-mer, 10 µM
Text: BALB/c mice were immunized with 18-mer peptides containing Ccdc85c^MUT as well as Ccdc85c^WT as described in Methods. Spleens were harvested seven days after the second immunization and splenic CD8 T cells tested by ELIspot for interferon γ production in response to stimulation in vitro with the peptides used for immunization. […] Since the CD8 response detected in vitro was so modest, CD8 response as detected in vivo in the tumor microenvironment became our focus.
Supplementary Fig. 3. CD8 response to Ccdc85cMUT and Ccdc85cWT peptides. BALB/c mice were immunized twice at a weekly interval with 18-mer peptides containing Ccdc85cWT (left) or Ccdc85cMUT (right) as described in Methods. Spleens were harvested seven days after the second immunization and CD8 T cells stimulated in vitro with the peptides (10 µM concentration) used for immunization, as indicated. CD8 cells were analyzed for release of interferon g. Each dot represents a single mouse. The P values were calculated using two tailed t-test. Data are presented as mean values +/- SD. […]

H2-A^d = experiment: MHC II cell-surface density assay, H2-A^d; type: cell-based, mouse; conditions: NIH3T3 cells, flow cytometry 48 h after transduction; peptides adjusted to 12-mer with N-terminal glycines; MUT vs WT counterpart
Text: (§1) In order to determine if any peptides within Ccdc85c^MUT could be presented by MHC II molecules, we analyzed the interaction of H2-A^d and H2-E^d with […], […] and IRPFETKVK as well as their wild type counterparts, using a cell-surface density assay. In this assay, β-chains of H2-Ab1^d or H2-Eb1^d are expressed in fusion with the peptide of interest and the amount of cell-surface MHC II, as a measure of intrinsic stability of MHC II, is quantified in engineered conditions. The measured cell-surface MHC density correlates well with the actual affinity of the peptide to MHC II. […] This was observed when CD4 depletion was carried out during the priming phase alone (as in Supplementary Fig. 2b), or throughout the entire experiment including the effector phase (i.e. post tumor challenge).
(§2) MHC II-peptide binding analysis was conducted by cell-surface density assay[18] with modifications. […] Cell-surface expression of H2-A^d or H2-E^d and cytoplasmic expression of GFP in GFP^+ MHC^+ cells were measured by flow cytometry 48 h after the transduction, using the following antibodies: H2-A^d, anti-mouse I-A^d mAb with the dilution of 1:10, 20 μl per sample (39-10-8, BioLegend) or mouse IgG3 isotype control with the dilution of 1:100, 10 μl per sample (m078-3, clone 6A3, Medical & Biological Laboratories Co. Ltd.) and goat anti-mouse IgG3-PE with the dilution of 1:20, 15 μl per sample (sc-3767, Santa Cruz Biotechnology, Inc.); H2-E, anti-I-E^d mAb with the dilution of 1:40, 10 μl per sample (115002, 14-4-4 S, Thermo Fisher) or mouse IgG2a isotype control with the dilution of 1:10, 10 μl per sample (m076-3, clone 6H3, Medical & Biological Laboratories Co. Ltd.) and goat F(ab’)2 Anti-mouse Ig-PE with the dilution of 1:20, 20 μl per sample (1012-09, Southern Biotechnology Associates Inc.). The ratio of MHC MFI to GFP MFI (MHC/GFP) for each MHC II-peptide combination was calculated and normalized to the MHC/GFP for respective MHC II allele-G9 peptide. On each assay date, MHC/GFP for each MHC II-peptide combination was measured for three or four wells and their average was determined. […]

H2-E^d = experiment: MHC II cell-surface density assay, H2-E^d; type: cell-based, mouse; conditions: NIH3T3 cells, flow cytometry 48 h after transduction; peptides adjusted to 12-mer with N-terminal glycines; MUT vs WT counterpart
Text: as §1, §2

K^d = biological target: T1, K^d (Mus musculus, UniProt P01902); experiment: Measured peptide binding to K^d
T1 sequence (P01902 22-368): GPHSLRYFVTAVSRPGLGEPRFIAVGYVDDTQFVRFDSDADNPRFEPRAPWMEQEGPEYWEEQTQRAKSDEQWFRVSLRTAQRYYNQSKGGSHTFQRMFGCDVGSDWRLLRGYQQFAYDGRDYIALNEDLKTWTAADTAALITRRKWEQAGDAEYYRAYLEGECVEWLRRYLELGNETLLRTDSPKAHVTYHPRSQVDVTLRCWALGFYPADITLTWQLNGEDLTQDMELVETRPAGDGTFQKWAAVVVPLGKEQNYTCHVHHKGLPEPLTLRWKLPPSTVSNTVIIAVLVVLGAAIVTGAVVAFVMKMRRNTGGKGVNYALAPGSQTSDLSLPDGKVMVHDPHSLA
T1 sequence (P01887 21-119 partner): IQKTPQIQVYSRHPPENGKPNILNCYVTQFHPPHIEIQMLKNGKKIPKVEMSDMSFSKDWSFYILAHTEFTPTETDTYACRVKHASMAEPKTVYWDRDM
Procedure: Each line represents tumor growth in a single mouse (n = 5 mice per group). AUC for each group is plotted in the panel on the right. Data are presented as mean ± SD. P values were calculated using 1-way ANOVA test adjusted for multiple comparisons (Tukey’s multiple comparison test). c Several truncated versions of the 18-mer Ccdc85c^MUT peptide were tested in tumor rejection assay. BALB/cJ mice were immunized and tumor challenged. Each line represents tumor growth in a single mouse. Although mice were immunized with individual peptides, the data for multiple peptides are grouped into one with the composition of the peptides shown on the right. The tumor rejection data for individual peptides are shown in Supplementary Fig. 1. Tumor rejection score (TRS) for each neoepitope is shown in the yellow box, where five represents a complete tumor protection and zero means no tumor rejection. d On the left panel, total Area Under the Curve (AUC) scores for each group in B are plotted. […] Error bars represent standard deviation (SD). The P values corresponding to the comparison of TRS = 0 with TRSs 5.0, 4.0–4.5 and 3.0–3.3 were respectively <0.0001, <0.0001 and 0.0002. P values were calculated using 1-way ANOVA test adjusted for multiple comparisons. On the right, peptides with the highest and the lowest TRS are shown. e Targeted MS-based detection of TYIRPFETKVK and YIRPFETKVK among MHC I peptides eluted from BMDCs pulsed with the 18-mer Ccdc85c^MUT. Heavy labeled synthetic peptides were spiked into the peptide samples; the labeled amino acid is marked with a bold character and the mutation is in red. Matched peak lists for the “heavy” and “light” ions were extracted and monitored, while only single charge y ions were plotted. See Methods for details. f Predicted (by NetMHC4.0) and measured IC50 values of the binding of candidate precise neoepitopes of Ccdc85c^MUT to K^d are shown. […] The affinities of the MS/TRS predicted neoepitopes were also measured for D^d and L^d; measured affinities were below the level of detection.

D^d = experiment: Measured peptide binding to D^d; parameters: species or system mouse
Procedure: (§3) Each line represents tumor growth in a single mouse (n = 5 mice per group). AUC for each group is plotted in the panel on the right. Data are presented as mean ± SD. P values were calculated using 1-way ANOVA test adjusted for multiple comparisons (Tukey’s multiple comparison test). c Several truncated versions of the 18-mer Ccdc85c^MUT peptide were tested in tumor rejection assay. BALB/cJ mice were immunized and tumor challenged. Each line represents tumor growth in a single mouse. Although mice were immunized with individual peptides, the data for multiple peptides are grouped into one with the composition of the peptides shown on the right. The tumor rejection data for individual peptides are shown in Supplementary Fig. 1. […] P values were calculated using 1-way ANOVA test adjusted for multiple comparisons. […] Matched peak lists for the “heavy” and “light” ions were extracted and monitored, while only single charge y ions were plotted. See Methods for details. f Predicted (by NetMHC4.0) and measured IC50 values of the binding of candidate precise neoepitopes of Ccdc85c^MUT to K^d are shown. […] The affinities of the MS/TRS predicted neoepitopes were also measured for D^d and L^d; measured affinities were below the level of detection.

L^d = experiment: Measured peptide binding to L^d; parameters: species or system mouse
Procedure: as §3

“DPSSTYIRPLETKVKLLD [un-mutated peptide, un-mutated 18-mer peptide of Ccdc85c]” was tested, and the “tumor rejection (in words)” value (Meth A) was “failed to elicit protection” and the “CD8 response (interferon γ ELIspot)” value (splenic CD8 T cells) was “no CD8 response”.

For “IRPFETKVK [truncated version of the 18-mer Ccdc85c^MUT peptide]”, the “binding of Ccdc85c^MUT versus Ccdc85c^WT to H2-IA (MHC/GFP normalized to G9)” value (H2-A^d) was “No significant difference” and the “binding of Ccdc85c^MUT versus Ccdc85c^WT to H2-IE (MHC/GFP normalized to G9)” value (H2-E^d) was “No significant difference”.

TYIRPFETKV [TYIRPFETKV] gave an IC50 (K^d; assay kind not described) of 247 nM.

For TYIRPFETKVK, the “measured affinity for K^d (in words)” value (K^d) was “very low or undetectable”, the “measured affinity for D^d” value (D^d) was “very low or undetectable” and the “measured affinity for L^d” value (L^d) was “very low or undetectable”. The “binding of Ccdc85c^MUT versus Ccdc85c^WT to H2-IA (MHC/GFP normalized to G9)” value (H2-A^d) was “No significant difference” and the “binding of Ccdc85c^MUT versus Ccdc85c^WT to H2-IE (MHC/GFP normalized to G9)” value (H2-E^d) was “No significant difference”.

YIRPFETKVK was tested, and the “measured affinity for K^d (in words)” value (K^d) was “very low or undetectable”, the “measured affinity for D^d” value (D^d) was “very low or undetectable” and the “measured affinity for L^d” value (L^d) was “very low or undetectable”. The “binding of Ccdc85c^MUT versus Ccdc85c^WT to H2-IA (MHC/GFP normalized to G9)” value (H2-A^d) was “No significant difference” and the “binding of Ccdc85c^MUT versus Ccdc85c^WT to H2-IE (MHC/GFP normalized to G9)” value (H2-E^d) was “No significant difference”.
